Tests used:
BorF = molecular target: T1, BorF (uncultured bacterium, UniProt M9QXS1); test: NADH depletion at […] nm; assay type: biochemical; conditions: 25 mM HEPES pH 7.5, room temperature
T1 construct: full-length residues 1-196 plus an N-terminal Pro after PreScission cleavage; His6-MBP tag removed; synthetic gene, E. coli Rosetta2(DE3) pLysS; homodimer
T1 sequence (M9QXS1 1-196): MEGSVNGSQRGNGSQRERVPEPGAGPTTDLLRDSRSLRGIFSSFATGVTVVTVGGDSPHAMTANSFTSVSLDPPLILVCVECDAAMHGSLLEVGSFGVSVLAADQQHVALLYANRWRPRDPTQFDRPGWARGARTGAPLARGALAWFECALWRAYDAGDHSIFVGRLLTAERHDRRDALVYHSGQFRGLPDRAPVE

[1] = molecular target: BorF (soil bacterial metagenome from the Anza-Borrego desert); test: SEC; BorF alone after tag cleavage, Superdex 200, 20 mM Tris pH 7.5, 150 mM NaCl; single peak at 78.2 mL

NC(=O)C1=CN([C@@H]2O[C@H](COP(=O)(O)OP(=O)(O)OC[C@H]3O[C@@H](n4cnc5c(N)ncnc54)[C@H](O)[C@@H]3O)[C@@H](O)[C@H]2O)C=CC1 [NADH]
NADH depletion at 340 nm (BorF; apo-BorF 0.2 μM, 25 μM FAD): BorF oxidizes NADH to NAD^+, as determined by NADH depletion monitored by absorbance

BorF (enzyme)
stoichiometry N [1]: 2

Cc1cc2nc3c(=O)[nH]c(=O)nc-3n(C[C@H](O)[C@H](O)[C@H](O)COP(=O)(O)O)c2cc1C [FMN]
NADH depletion at 340 nm (BorF; apo-BorF, 25 μM FMN, 100 μM NADH): BorF utilizes FAD as a substrate but is also able to reduce FMN and riboflavin
